The results in this text go back to patent publication US8278436B2, “Glycosylated warfarin analogs and uses thereof” (priority 2008, dated 2012).

Like-named read-outs stand apart in the source and are kept apart here. A value given as a limit tells only on which side of the number the result lay.

Type in all cases: cell-based
The test system of experiment [1] is A549 human lung adenocarcinoma cells. Put plainly: cell proliferation assay, A549. The conditions noted are these: read-out: A549 Lung (+p53). From the text:
(§1) In this Example, the warfarin neoglycosides of the invention were screened for anti-tumor activity in cell proliferation assays using the following tumor cells lines: A549—human lung adenocarcinoma; H1299—human lung adenocarcinoma (p53 null); HCT-15—human colorectal adenocarcinoma; HT-29—human colorectal adenocarcinoma; MCF7—human breast adenocarcinoma; NCI-H460—human lung adenocarcinoma; SF-268—human CNS adenocarcinoma; and SKOV-3—human ovarian adenocarcinoma.
(§2) All cell lines were maintained as previously reported (see Langenhan, J. M.; Peters, N. R.; Guzei, I. A.; Hoffmann, F. M.; Thorson, J. S. Proc. Natl. Acad. Sci. USA 2005, 102, 12305-12310, which is incorporated by reference herein). Cells were harvested using 0.25% trypsin and 0.1% EDTA and counted in a Cellometer Auto T4 cell counter (Nexcelom, Inc.) prior to dilution for assay plating. Cells were plated at a denity of 500 cells per well in 50 μL volumes in 384-well clear-bottom tissue culture plates (Corning-Costar, Inc.).
(§3) Compounds were added from the 384-well compound stock plates at a 1:100 dilution using a Biomek FX liquid handler equipped with a 384-channel head (Beckman Coulter, Inc.). The plates were incubated for 7 days at 37° C. in a 5% CO2 atmosphere prior to performing the assays. Calcein AM (acetoxymethyl ester) reagent and EthD-1 (30 μL, 10 μM CAM and 100 μM EthD-1) was added and the cells were incubated for 30 min at 37° C. […] resulting from incubation with Calcein AM and EthD-1 was read using a Safire-2 microplate reader at the appropriate wavelengths. To lyse the cells, 15 μL of CellTiter-Glo reagent (Promega Corporation, Inc.) was added and the cells were incubated for 10 min at room temperature with gentle agitation. The luminescence of each plate was re-read to confirm the observed inhibition.
(§4) IC50s for cell proliferation assays were determined for Calcein AM, the ratio of live/dead cells (Calcein AM/EthD-1), and CellTiter-Glo using XLfit 4.0 as previously described (see Langenhan, J. M.; Peters, N. R.; Guzei, I. A.; Hoffmann, F. M.; Thorson, J. S. Proc. Natl. Acad. Sci. USA 2005, 102, 12305-12310, which is incorporated by reference herein). The IC50 determined using the best fit curve for dosage response from any of the 3 assays is reported as the final IC50. The best fit curve is defined as the curve with the lowest standard error.

Experiment [2] deals with H1299 human lung adenocarcinoma (p53 null) cells. Nature of the experiment: cell proliferation assay, H1299. Conditions: Table 3 summary of most active compounds.
Excerpt: as §1, §2, §3
(§5) IC50s for cell proliferation assays were determined for Calcein AM, the ratio of live/dead cells (Calcein AM/EthD-1), and CellTiter-Glo using XLfit 4.0 as previously described (see Langenhan, J. M.; Peters, N. R.; Guzei, I. A.; Hoffmann, F. M.; Thorson, J. S. Proc. Natl. Acad. Sci. USA 2005, 102, 12305-12310, which is incorporated by reference herein). The IC50 determined using the best fit curve for dosage response from any of the 3 assays is reported as the final IC50.

The subject of experiment [3] is HCT-15 human colorectal adenocarcinoma cells. Put plainly: cell proliferation assay, HCT-15. The conditions noted are these: for IC50: Table 3 summary of most active compounds, read-out: HCT15 Colorectal.
Excerpt: as §1, §2, §3, §4

Experiment [4] relates to HT-29 human colorectal adenocarcinoma cells. Put plainly: cell proliferation assay, HT-29.
Excerpt: as §1, §2, §3, §4

Experiment [5] concerns MCF7 human breast adenocarcinoma cells. Nature of the experiment: cell proliferation assay, MCF7.
Excerpt: as §1, §2, §3, §5

Experiment [6] has as its system NCI/ADR-RES. Nature of the experiment: cell proliferation assay, NCI/ADR-RES. Conditions: Table 3 summary of most active compounds. How it is done: as §2, §3, §5
The subject of experiment [7] is NCI-H460 human lung adenocarcinoma cells. Nature of the experiment: cell proliferation assay, NCI-H460.
Excerpt: as §1, §2, §3, §4

The subject of experiment [8] is SKOV-3 human ovarian adenocarcinoma cells. Put plainly: cell proliferation assay, SKOV-3. The conditions noted are these: read-out: SKOV3 Ovarian.
Excerpt: as §1, §2, §3, §4

For experiment [9], the system named is SF-268 human CNS adenocarcinoma cells. Put plainly: cell proliferation assay, SF-268.
Excerpt: as §1, §2, §3, §5

Where [10] appears, read: Table 3 summary of most active compounds, listed as L-xylose.
Setting [11] is: Table 3 summary of most active compounds, listed as D-lyxose.
[12] abbreviates: Table 3 summary of most active compounds, listed as D-xylose.
Setting [13] is: Table 3 summary of most active compounds.
[14] abbreviates: Table 3 summary of most active compounds, IC50, read-out: H729 Colorectal.
The mark [15] stands for this setting: Table 3 summary of most active compounds, IC50, read-out: SF268 Giloblast.
Setting [16] is: Table 3 summary of most active compounds, listed as L-arabinose.
[17] abbreviates: Table 3 summary of most active compounds, listed as L-ribose.

Consider `CON(C(C)CC(c1ccccc1)c1c(O)c2ccccc2oc1=O)C1OCC(O)C(O)C1O` (mixture of isomers) [WARF Analog 1], for which the IC50 in experiment [1] (setting [10]) is 67 µM; in experiment [2] (listed as L-xylose) it was 30 µM; in [3] (listed as L-xylose) it was 14 µM; in [4] (Table 3 summary of most active compounds, IC50, listed as L-xylose, read-out: H729 Colorectal), 37 µM; in [5] (setting [10]), 15 µM; in experiment [6] (listed as L-xylose) it was 50 µM. Further, the IC50 in experiment [7] (setting [10]) is greater than 100 µM; in experiment [8] (setting [10]), 45 µM.
`CON(C(C)CC(c1ccccc1)c1c(O)c2ccccc2oc1=O)C1OCC(O)C(O)C1O` (mixture of isomers) [WARF Analog 6]: the IC50 in experiment [1] (setting [11]) was 76 µM; in [3] (listed as D-lyxose) it was 7 µM; in experiment [4] (Table 3 summary of most active compounds, IC50, listed as D-lyxose, read-out: H729 Colorectal), 52 µM; in [6] (listed as D-lyxose) it was 57 µM; in experiment [7] (setting [11]), greater than 100 µM; in experiment [9] (Table 3 summary of most active compounds, IC50, listed as D-lyxose, read-out: SF268 Giloblast), 39 µM. Also, the IC50 in experiment [8] (setting [11]) is 47 µM. In experiment [3] (HCT 15 colorectal cell lines, compared with all the neoglycosides tested), the “level of activity, in words” value is given as “highest level of activity”.
`CON(C(C)CC(c1ccccc1)c1c(O)c2ccccc2oc1=O)C1OCC(O)C(O)C1O` (mixture of isomers) [WARF Analog 9]: the IC50 in experiment [1] (setting [12]) was found to be 40 µM; in [2] (listed as D-xylose) it was 27 µM; in [3] (listed as D-xylose) it was 11 µM; in experiment [4] (Table 3 summary of most active compounds, IC50, listed as D-xylose, read-out: H729 Colorectal) it was 43 µM; in experiment [5] (setting [12]) it was 12 µM; in [6] (listed as D-xylose), 38 µM. For the same compound, the IC50 in experiment [7] (setting [12]) worked out at 99 µM; in [9] (Table 3 summary of most active compounds, IC50, listed as D-xylose, read-out: SF268 Giloblast), 37 µM; in [8] (setting [12]), 52 µM.
For `CON(C(C)CC(c1ccccc1)c1c(O)c2ccccc2oc1=O)C1CC(O)C(O)CO1` (mixture of isomers) [WARF Analog 11], the IC50 in experiment [1] (setting [13]) was greater than 100 µM; in [2], 92 µM; in experiment [3], 13 µM; in experiment [4] (setting [14]), greater than 100 µM; in [5] (setting [13]) it was 78 µM; in experiment [6], greater than 100 µM. Besides, the IC50 in experiment [7] (setting [13]), in experiment [9] (setting [15]) and in experiment [8] (setting [13]) was greater than 100 µM in each case.
For `CON(C(C)CC(c1ccccc1)c1c(O)c2ccccc2oc1=O)C1OC(C)C(O)C(O)C1O` (mixture of isomers) [WARF Analog 12], the IC50 in experiment [1] (setting [13]) is greater than 100 µM; in [2], greater than 100 µM; in [3] (listed as L-fucose), 9 µM; in experiment [4] (Table 3 summary of most active compounds, IC50, listed as L-fucose, read-out: H729 Colorectal), 80 µM; in experiment [5] (setting [13]), greater than 100 µM; in experiment [6] it was greater than 100 µM. The IC50 in [7] (setting [13]) is greater than 100 µM; in [9] (Table 3 summary of most active compounds, IC50, listed as L-fucose, read-out: SF268 Giloblast), 89 µM; in [8] (Table 3 summary of most active compounds, listed as L-fucose), 81 µM.
On to `CON(C(C)CC(c1ccccc1)c1c(O)c2ccccc2oc1=O)C1OCC(O)C(O)C1O` (mixture of isomers) [WARF Analog 15], for which the IC50 in experiment [1] (setting [16]) is 48 µM; in [2] (listed as L-arabinose) it was 51 µM; in experiment [3] (listed as L-arabinose), 49 µM; in experiment [4] (Table 3 summary of most active compounds, IC50, listed as L-arabinose, read-out: H729 Colorectal), 97 µM; in [5] (setting [16]) it was 79 µM; in experiment [6] (listed as L-arabinose), 68 µM. Further, the IC50 in [7] (setting [16]) was greater than 100 µM; in experiment [9] (Table 3 summary of most active compounds, IC50, listed as L-arabinose, read-out: SF268 Giloblast), 69 µM; in [8] (setting [16]), 76 µM.
For `CON(C(C)CC(c1ccccc1)c1c(O)c2ccccc2oc1=O)C1OCC(O)C(O)C1O` (mixture of isomers) [WARF Analog 25], the IC50 is 72 µM in [1] (setting [17]); 37 µM in experiment [3] (listed as L-ribose); 72 µM in experiment [4] (Table 3 summary of most active compounds, IC50, listed as L-ribose, read-out: H729 Colorectal); 45 µM in [5] (setting [17]); 62 µM in experiment [6] (listed as L-ribose); greater than 100 µM in [7] (setting [17]). Besides, the IC50 was greater than 100 µM in [9] (Table 3 summary of most active compounds, IC50, listed as L-ribose, read-out: SF268 Giloblast) and 60 µM in [8] (setting [17]).
As to `CON(C(C)CC(c1ccccc1)c1c(O)c2ccccc2oc1=O)C1OC(C)C(O)C(O)C1O` (mixture of isomers) [WARF Analog 50], the IC50 is greater than 100 µM in [1] (setting [13]); 14 µM in experiment [3] (listed as 6-deoxy-D-glucose); greater than 100 µM in experiment [4] (Table 3 summary of most active compounds, IC50, listed as 6-deoxy-D-glucose, read-out: H729 Colorectal); greater than 100 µM in experiment [6]; greater than 100 µM in [7] (setting [13]); greater than 100 µM in experiment [9] (Table 3 summary of most active compounds, IC50, listed as 6-deoxy-D-glucose, read-out: SF268 Giloblast). In [8] (Table 3 summary of most active compounds, listed as 6-deoxy-D-glucose), the IC50 is greater than 100 µM.
On to `CON(C(C)CC(c1ccccc1)c1c(O)c2ccccc2oc1=O)C1O[C@H](COCc2ccccc2)[C@@H](OCc2ccccc2)[C@@H]1OCc1ccccc1` (some centres unmarked) [WARF Analog 42], for which the IC50 in experiment [1] (setting [13]) worked out at 27 µM; in experiment [2], 19 µM; in [3], 11 µM; in experiment [4] (setting [14]) it was 19 µM; in experiment [5] (setting [13]) it was 29 µM; in experiment [6] it was 20 µM. For the same compound, the IC50 turned out to be 20 µM in [9] (setting [15]) and 27 µM in [8] (setting [13]).
As to `CC(=O)CC(c1ccccc1)c1c(O)c2ccccc2oc1=O` (centres unmarked) [WARF Analog A, 4-hydroxy-3-(3-oxo-1-phenylbutyl)-2H-1-benzopyran-2-one, reference compound], the IC50 was 781 µM in experiment [1] (Homo sapiens, A549, Table 3 summary of most active compounds); 543 µM in experiment [3] (Homo sapiens, HCT-15); 735 µM in experiment [4] (Homo sapiens, HT-29, read-out: H729 Colorectal); 301 µM in experiment [5] (Homo sapiens, MCF7, Table 3 summary of most active compounds); greater than 100 µM in [6] (Homo sapiens); 557 µM in experiment [7] (Homo sapiens, NCI-H460, Table 3 summary of most active compounds). Further, the IC50 in experiment [9] (Homo sapiens, SF-268, read-out: SF268 Giloblast) turned out to be 765 µM; in experiment [8] (Homo sapiens, SK-OV-3, Table 3 summary of most active compounds), 393 µM.
